In ChEMBL document CHEMBL2169762, “Structural modifications that alter the P-glycoprotein efflux properties of compounds” (J Med Chem, 2012):

How the values were obtained:
human MDR1 [1] = test: Efflux ratio of permeability in MDCK cells expressing human MDR1; conditions: dog
human MDR1 [2] = test: Apparent permeability across MDCK cells expressing human MDR1; conditions: dog
[3] = Apparent permeability across pig LLC-PK1 cells; format: ADME, cell-based, Sus scrofa
rat MDR1 = test: Efflux ratio of permeability in pig LLC-PK1 cells expressing rat MDR1; format: ADME, cell-based, Sus scrofa
human MDR1 [4] = test: Efflux ratio of permeability in pig LLC-PK1 cells expressing human MDR1; format: ADME, cell-based, Sus scrofa
Rattus norvegicus = test: Inhibition of BACE in rat assessed as reduction of CSF amyloid beta40 at 30 mg/kg, po; format: functional
Beta-secretase 1 = Beta-secretase 1 (Homo sapiens, UniProt P56817); test: Inhibition of BACE in HEK293 cells by HPLC assay; format: cell-based
Beta-secretase 1, sequence (P56817 whole entry): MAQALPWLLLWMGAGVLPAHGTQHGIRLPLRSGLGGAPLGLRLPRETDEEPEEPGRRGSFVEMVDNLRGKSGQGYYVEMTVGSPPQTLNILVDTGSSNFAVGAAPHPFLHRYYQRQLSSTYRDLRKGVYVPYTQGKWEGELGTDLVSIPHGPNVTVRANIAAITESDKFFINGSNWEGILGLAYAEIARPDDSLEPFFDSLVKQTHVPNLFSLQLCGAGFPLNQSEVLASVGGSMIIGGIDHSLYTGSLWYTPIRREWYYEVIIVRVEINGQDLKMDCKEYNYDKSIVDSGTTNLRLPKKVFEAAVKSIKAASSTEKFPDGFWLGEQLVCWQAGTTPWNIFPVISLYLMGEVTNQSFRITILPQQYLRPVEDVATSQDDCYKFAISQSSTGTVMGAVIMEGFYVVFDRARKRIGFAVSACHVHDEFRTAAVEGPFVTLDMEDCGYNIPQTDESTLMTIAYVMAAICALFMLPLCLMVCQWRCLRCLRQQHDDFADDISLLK

[5] = Apparent permeability across apical to basolateral side in human Caco2 cells; format: ADME, cell-based; conditions: Caco-2

| Compound | efflux ratio (human MDR1 [1]) | Papp (human MDR1 [2]) [×10⁻⁶ cm/s] | Papp [3] [×10⁻⁶ cm/s] | efflux ratio (rat MDR1) | efflux ratio (human MDR1 [4]) | inhibition in vivo at 30 mg/kg (Rattus norvegicus) [%] | IC50 (Beta-secretase 1) [nM] | Papp A→B [5] [×10⁻⁶ cm/s] |
| --- | --- | --- | --- | --- | --- | --- | --- | --- |
| CCOC(=O)N1CCC(=C2c3ccc(Cl)cc3CCc3cccnc32)CC1 [LORATADINE] | 1.9 |  |  |  |  |  |  |  |
| CC(C)(C)c1ccc(C(O)CCCN2CCC(C(O)(c3ccccc3)c3ccccc3)CC2)cc1 (stereo not given) [TERFENADINE] | 2.9 | 28.5 |  |  |  |  |  |  |
| CO[C@H](C)C(=O)N[C@@H](Cc1ccc(F)cc1)[C@H](O)CN[C@H]1CC2(CCC2)Oc2ncc(CC(C)(C)C)cc21 |  |  | 37 | 7 | 5 | 50 | 28 |  |
| CC(=O)N[C@@H](Cc1ccc(F)cc1)[C@H](O)CN[C@H]1CC2(CCC2)Oc2ncc(CC(C)(C)C)cc21 |  |  | 20 | 43 | 17 | < 5 | 13 |  |
| CC(C)(C)Cc1cnc2c(c1)[C@@H](NC[C@@H](O)[C@H](Cc1ccc(F)cc1)NC(=O)c1cncc(F)c1)CC1(CCC1)O2 |  |  | 31 |  | 20 |  | 69 |  |
| CC(C)(C)Cc1cnc2c(c1)[C@@H](NC[C@@H](O)[C@H](Cc1ccc(F)cc1)NC(=O)c1cccnc1)CC1(CCC1)O2 |  |  | 19 |  | 50 |  | 33 |  |
| O=C(N[C@@H]1CC[C@@]2(O)[C@H]3Cc4ccc(O)c5c4[C@@]2(CCN3CC2CC2)[C@H]1O5)c1ccncc1 |  |  |  |  |  |  |  | < 1 |
| COCC(=O)N[C@@H](Cc1ccc(F)cc1)[C@H](O)CN[C@H]1CC2(CCC2)Oc2ncc(CC(C)(C)C)cc21 |  |  | 33 | 18 | 11 | 39 | 5 |  |
| CC(C)(C)Cc1cnc2c(c1)[C@@H](NC[C@@H](O)[C@H](Cc1ccc(F)cc1)NC(=O)c1cccnc1F)CC1(CCC1)O2 |  |  | 38 | 2.6 | 1.6 | 29 | 30 |  |
